Assays:
[1] = tested on: SNU-16 transplantation tumor model; assay: In vivo pharmacodynamic evaluation, SNU-16 gastric cancer transplantation tumor model; parameters: species or system nude mice; conditions: SNU-16 transplantation model
Procedure: Method of establishing SNU-16 gastric cancer model: SNU-16 cells in logarithmic growth phase were collected, and the cells were resuspended in 50% PBS (pH 7.4, 0.01 M) and 50% Matrigel after cell counting. The cell concentration was adjusted to 4×10^7 cells/mL; the cells were placed in an ice box, and the cell suspension was aspirated with a 1-mL syringe and subcutaneously injected into nude mice via the anterior right armpit. Each animal was inoculated with 200 μL (8×10^6 cells/each) to establish the SNU-16 transplantation tumor model. The animals were observed regularly, and the tumor diameters were measured using an electronic vernier caliper. The data were inputted an Excel spreadsheet to calculate the tumor volume and monitor the tumor growth. When the tumor volume reached 100-300 mm^3, mice bearing similar tumor volume and in good health condition were selected. Randomization method was used for animal grouping; the number of animals in each group was n=7, and the average tumor volume of each group was about 145 mm^3. After the experiment started, tumor diameters were measured and tumor volume was calculated twice a week, and the weight of animals was weighed and recorded.
Tumor growth inhibition (TGI) was used to analyze the tumor growth trend and evaluated by tumor volume over time. The long axis (L) and short axis (W) of the subcutaneous tumors were measured twice a week by a caliper, and the tumor volume (TV) was calculated by the formula ((L×W^2)/2).
The experimental data were calculated and statistically processed by SPSS 19.0. Unless otherwise stated, data were expressed as mean f standard error (Mean±SE), and comparisons between two groups were analyzed by t-test. p<0.05 indicates a significant difference. The solvent 30% PEG400 (containing 70% deionized water, v/v) was used as negative control.

[2] = Pharmacokinetic evaluation in mice (IV and PO); type: in vivo, male CD-1 mice; conditions: for AUC(0-t) / bioavailability / Cmax / Tmax / clearance / half-life / Vd: male, plasma; for bioavailability: PO 10 mg/kg vs IV 2 mg/kg, read-out: F (bioavailability); for Cmax: read-out: Cmax (peak concentration); for Tmax: read-out: Tmax (time to peak); for clearance: read-out: Cl (plasma clearance); for half-life: read-out: T1/2 (elimination half-life) (converted); for Vd: read-out: Vdss (steady-state apparent volume of distribution); for oral bioavailability (in words): oral administration
Procedure: Experimental Procedure: 0.4 mg/mL clear solution of the test compounds in a specific menstruum was injected intravenously into male CD-1 nude mice (overnight fasting, aged 7-9 weeks) via caudal vein at a dose of 2 mg/kg. About 30 μL of blood was collected from jugular or caudal vein at 0.0833, 0.25, 0.5, 1.0, 2.0, 4.0, 8.0 and 24 h after intravenous administration. […] About 30 μL of blood was collected from jugular or caudal vein of the male CD-1 mice at 0.0833, 0.25, 0.5, 1.0, 2.0, 4.0, 8.0 and 24 h after oral administration. The blood samples were added into anticoagulant tubes containing EDTA-K2, and then centrifuged to separate the plasma. LC-MS/MS method was used to determine the drug concentration in blood, and WinNonlin™ Version 6.3 (Pharsight, Mountain View, CA) pharmacokinetic software was used to calculate the relevant pharmacokinetic parameters by non-compartment model linear logarithmic trapezoidal method.
Note: Plasma clearance (Cl) mL/min/kg, steady-state apparent volume of distribution (Vdss) L/kg, elimination half-life (T1/2) and area under the plasma concentration curve from point 0 to the last measurable time point (AUC0-last), bioavailability F %, peak concentration (Cmax), time to peak Tmax

human c-Met = target: T1, human c-Met (Homo sapiens, UniProt P08581); assay: 33P isotope-labeled kinase activity test, c-Met; type: biochemical; conditions: ATP 10 μM
T1 construct: purchased Invitrogen PV3143
T1 sequence (P08581 25-1390): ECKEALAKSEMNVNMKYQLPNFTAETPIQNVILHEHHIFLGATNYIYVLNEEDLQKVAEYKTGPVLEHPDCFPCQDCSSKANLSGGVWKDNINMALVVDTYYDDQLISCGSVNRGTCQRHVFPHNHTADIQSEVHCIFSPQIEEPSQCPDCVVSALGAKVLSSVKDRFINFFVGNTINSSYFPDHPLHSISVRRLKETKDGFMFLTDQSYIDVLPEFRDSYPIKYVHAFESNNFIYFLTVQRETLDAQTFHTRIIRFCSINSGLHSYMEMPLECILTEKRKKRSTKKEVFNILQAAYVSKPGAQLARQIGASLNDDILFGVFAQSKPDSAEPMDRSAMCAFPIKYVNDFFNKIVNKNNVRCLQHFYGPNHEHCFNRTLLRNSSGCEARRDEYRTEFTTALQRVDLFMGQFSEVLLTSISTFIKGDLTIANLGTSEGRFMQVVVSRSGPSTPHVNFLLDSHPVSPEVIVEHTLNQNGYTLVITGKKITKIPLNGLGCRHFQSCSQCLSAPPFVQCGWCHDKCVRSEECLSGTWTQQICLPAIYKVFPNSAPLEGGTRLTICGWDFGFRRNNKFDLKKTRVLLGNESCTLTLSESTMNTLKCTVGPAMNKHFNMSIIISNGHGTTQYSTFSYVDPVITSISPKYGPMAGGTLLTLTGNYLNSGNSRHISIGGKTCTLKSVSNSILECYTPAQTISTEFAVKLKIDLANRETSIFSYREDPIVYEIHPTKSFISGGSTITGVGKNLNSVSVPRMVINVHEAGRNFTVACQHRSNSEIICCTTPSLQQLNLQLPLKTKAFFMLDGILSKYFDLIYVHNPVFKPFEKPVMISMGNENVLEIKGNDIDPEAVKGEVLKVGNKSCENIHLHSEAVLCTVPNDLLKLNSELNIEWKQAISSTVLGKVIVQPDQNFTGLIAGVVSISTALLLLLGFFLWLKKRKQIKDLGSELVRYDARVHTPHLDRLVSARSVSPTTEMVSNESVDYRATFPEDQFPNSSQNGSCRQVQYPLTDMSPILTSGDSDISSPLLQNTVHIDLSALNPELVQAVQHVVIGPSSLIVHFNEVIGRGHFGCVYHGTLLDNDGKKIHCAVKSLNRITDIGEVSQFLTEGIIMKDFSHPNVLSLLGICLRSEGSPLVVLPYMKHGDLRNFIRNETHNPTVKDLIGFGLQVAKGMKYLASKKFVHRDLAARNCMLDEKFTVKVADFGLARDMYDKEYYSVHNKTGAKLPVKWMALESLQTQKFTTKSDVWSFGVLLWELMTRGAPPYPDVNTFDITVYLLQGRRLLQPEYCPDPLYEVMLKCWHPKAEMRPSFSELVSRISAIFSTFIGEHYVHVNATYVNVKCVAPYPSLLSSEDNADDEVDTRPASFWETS
Procedure: (§1) The inhibitory activities of the tested compounds on human FGFR1, FGFR4, and c-Met were evaluated by the IC50 values measured using ^33P isotope-labeled kinase activity test (Reaction Biology Corp).
(§2) Buffer condition: 20 mM Hepes (pH 7.5), 10 mM MgCl2, 1 mM EGTA, 0.02% Brij35, 0.02 mg/mL BSA, 0.1 mM Na3VO4, 2 mM DTT, 1% DMSO.
(§3) Test procedure: The test compounds were dissolved in DMSO at room temperature and formulated to be 10 mM solutions for later use. The substrates were dissolved in freshly prepared buffer, and kinases to be tested were added and mixed well. The test compounds dissolved in DMSO were added to the above mixed reaction solutions by acoustic technique (Echo 550). The concentration of the compound in reaction solution was 1 μM, 0.25 μM, 0.156 μM, 3.91 nM, 0.977 nM, 0.244 nM, 0.061 nM, 0.0153 nM, 0.00381 nM or 10 μM, 2.50 μM, 0.62 μM, 0.156 μM, 39.1 nM, 9.8 nM, 2.4 nM, 0.61 nM, 0.15 nM, 0.038 nM. After incubation for 15 min, ^33P-ATP (activity 0.01 μCi/μL, corresponding concentrations are listed in Table 1) was added to start the reaction. Supplier item number, batch number, as well as the concentration information in the reaction solution of FGFR1, FGFR4, c-Met and substrates thereof are listed in Table 1. […] The kinase activity data are expressed by comparison between the kinase activity in the test compound group and the kinase activity in the blank group (containing DMSO only). IC50 values were obtained by curve fitting with Prism4 software (GraphPad).

human FGFR1 = target: T2, human FGFR1 (Homo sapiens, UniProt P11362); assay: 33P isotope-labeled kinase activity test, FGFR1; type: biochemical; conditions: ATP 5 μM
T2 construct: purchased Invitrogen PV3146
T2 sequence (P11362 22-822): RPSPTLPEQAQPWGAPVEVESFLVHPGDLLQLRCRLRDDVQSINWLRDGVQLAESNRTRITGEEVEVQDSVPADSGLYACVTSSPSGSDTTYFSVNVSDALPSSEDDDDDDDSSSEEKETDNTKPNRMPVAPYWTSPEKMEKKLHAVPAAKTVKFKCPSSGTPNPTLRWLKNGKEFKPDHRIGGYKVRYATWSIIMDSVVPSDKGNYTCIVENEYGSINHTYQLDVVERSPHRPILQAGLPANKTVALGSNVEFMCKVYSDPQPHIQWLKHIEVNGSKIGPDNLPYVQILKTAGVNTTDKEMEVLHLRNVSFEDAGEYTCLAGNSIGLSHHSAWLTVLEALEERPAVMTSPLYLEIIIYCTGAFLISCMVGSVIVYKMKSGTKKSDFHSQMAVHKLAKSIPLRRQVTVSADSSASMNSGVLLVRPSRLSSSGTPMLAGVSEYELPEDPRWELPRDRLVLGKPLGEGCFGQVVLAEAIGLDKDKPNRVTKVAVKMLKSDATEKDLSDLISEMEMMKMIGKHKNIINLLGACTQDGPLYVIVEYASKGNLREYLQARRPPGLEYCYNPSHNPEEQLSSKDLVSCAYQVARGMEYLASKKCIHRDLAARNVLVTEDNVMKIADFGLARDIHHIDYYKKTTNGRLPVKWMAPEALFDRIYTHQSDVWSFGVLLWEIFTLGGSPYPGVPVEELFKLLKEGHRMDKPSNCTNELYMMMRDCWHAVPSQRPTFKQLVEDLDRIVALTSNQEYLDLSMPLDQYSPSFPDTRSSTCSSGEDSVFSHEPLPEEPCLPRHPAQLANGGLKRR
Procedure: as §1, §2
as §3, with “The concentration of the compound in reaction solution was 1 μM, 0.25 μM, 0.156 μM, 3.91 nM, 0.977 nM, 0.244 nM, 0.061 nM, 0.0153 nM, 0.00381 nM or 10 μM, 2.50 μM, 0.62 μM, 0.156 μM, 39.1 nM, 9.8 nM, 2.4 nM, 0.61 nM, 0.15 nM, 0.038 nM.” left out

human FGFR4 = target: T3, human FGFR4 (Homo sapiens, UniProt P22455); assay: 33P isotope-labeled kinase activity test, FGFR4; type: biochemical; conditions: ATP 100 μM
T3 construct: purchased Invitrogen P3054
T3 sequence (P22455 22-802): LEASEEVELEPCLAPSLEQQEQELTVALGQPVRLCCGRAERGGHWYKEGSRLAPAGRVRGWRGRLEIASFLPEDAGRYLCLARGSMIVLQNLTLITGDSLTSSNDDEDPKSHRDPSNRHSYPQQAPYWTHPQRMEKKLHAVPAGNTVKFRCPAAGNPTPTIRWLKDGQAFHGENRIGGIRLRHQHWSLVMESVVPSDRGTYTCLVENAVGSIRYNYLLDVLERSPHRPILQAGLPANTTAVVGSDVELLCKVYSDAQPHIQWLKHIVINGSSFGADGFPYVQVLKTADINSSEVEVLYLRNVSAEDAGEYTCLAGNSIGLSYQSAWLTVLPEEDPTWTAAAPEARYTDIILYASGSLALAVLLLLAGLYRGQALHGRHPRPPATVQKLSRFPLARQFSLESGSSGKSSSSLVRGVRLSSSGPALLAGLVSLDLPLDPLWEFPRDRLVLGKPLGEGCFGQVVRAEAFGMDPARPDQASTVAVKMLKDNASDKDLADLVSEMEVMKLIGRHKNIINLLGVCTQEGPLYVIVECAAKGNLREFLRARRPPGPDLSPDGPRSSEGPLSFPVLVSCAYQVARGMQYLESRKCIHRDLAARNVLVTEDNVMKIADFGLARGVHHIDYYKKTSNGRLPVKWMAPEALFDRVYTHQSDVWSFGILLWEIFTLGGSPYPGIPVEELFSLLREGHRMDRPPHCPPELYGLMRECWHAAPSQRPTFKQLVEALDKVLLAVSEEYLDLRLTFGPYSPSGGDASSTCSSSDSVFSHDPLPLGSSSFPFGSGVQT
Procedure: as §1, §2, §3

Row | Structure (SMILES) | TGI % (the last administration on the 21th day) ([1]; 10 mg/KG QD) [%] | AUC(0-t) ([2]; CD-1, mouse, PO 10 mg/kg) [µM·h] | bioavailability ([2]; CD-1, mouse) [%] | Cmax ([2]; CD-1, mouse, PO 10 mg/kg) [nM] | Tmax ([2]; CD-1, mouse, PO 10 mg/kg) [h] | AUC(0-t) ([2]; CD-1 nude, mouse, IV 2 mg/kg) [µM·h] | clearance ([2]; CD-1 nude, mouse, IV 2 mg/kg) [mL/min/kg] | half-life ([2]; CD-1 nude, mouse, IV 2 mg/kg) [h] | Vd ([2]; CD-1 nude, mouse, IV 2 mg/kg) [L/kg] | oral bioavailability (in words) [2] | IC50 (human c-Met) [nM] | IC50 (human FGFR1) [nM] | IC50 (human FGFR4) [nM] | TGI % (the last administration on the 21th day) ([1]; 5 mg/KG BID) [%]
1 | COc1nc(OC)c(F)c(Cc2c[nH]c3ncc(-c4cnn(CCO)c4)cc23)c1F [Embodiment 48] | 77 | 3.23 | 21.5 | 877 | 1.3 | 3.15 | 25.3 | 1.1 | 2.1 | moderate bioavailability | 6.3 | 0.3 | 1.7 | 
2 | COc1cc(OC)c(F)c(Cc2c[nH]c3ncc(-c4cnn(CCO)c4)cc23)c1F [Embodiment 46] | 80 | 16.6 | 86.6 | 5040 | 1 | 3.79 | 21.2 | 1.1 | 1.7 | high oral bioavailability |  |  |  | 98

Reference: US12312347B2, “Azaindole derivative and use thereof as FGFR and C-Met inhibitor” (Wuxi Life Fountain Biotech Co., Ltd, priority 2018, dated 2025)
